These results are taken from article PMC4042406 (British journal of haematology, 2011).

Values joined by “and” are separate entries in the source; they are usually repeats but may differ in a detail not shown here. Equal values may be shown once.

Data set [1] concerns MM.1S cells. Briefly: Immunoblotting, comparison of LCQ195, flavopiridol and Taxol. The note with it: equipotent doses: LCQ195 1 μM, flavopiridol 50 nM; 4-24 hrs.
The test system of data set [2] is MM.1S cells. Briefly: InnoCyte Cytochrome C release assay. Type of data set: cell-based, human.
The test system of another data set is panel of MM cell lines. Briefly: MTT colorimetric survival assay, panel of MM cell lines. The format is cell-based, human. The following applies: read-out: EC50 (viability), majority of MM cell lines, 0-4 μM, 48 hrs.
Another data set has as its system NOP2 MM cell line. Briefly: MTT colorimetric survival assay. The format is cell-based, human. The note with it: read-out: EC50 (viability), NOP2, 0-4 μM, 48 hrs.
For another data set, the system named is S6B45 MM cell line. Briefly: MTT colorimetric survival assay. The format is cell-based, human. The note with it: read-out: EC50 (viability), S6B45, 0-4 μM, 48 hrs.
In data set [3] the test system is MM.1S cells. Briefly: Gene expression profiling. Type of data set: cell-based, human. The note with it: 2 μM, 2-24hrs.
In another data set the test system is OPM2 MM cell line. Briefly: MTT colorimetric survival assay. The format is cell-based, human. The note with it: read-out: EC50 (viability), OPM2, 0-4 μM, 48 hrs.
A further data set has as its target CDK1/cyclin B (Homo sapiens, UniProt P06493). Briefly: Invitrogen Z'-LYTE in vitro kinase activity assay. The format is biochemical. The following applies: 500 nM LCQ195, 100 μM ATP, 1% DMSO.
Data set [4] concerns Bcl-2 over-expressing MM.1S. Briefly: Survival of Bcl-2 over-expressing MM.1S vs parental cells. The following applies: LCQ195 treatment for 48 hrs. The format is cell-based, human.
In data set [5] the test system is MM.1S cells. Briefly: Drug combination viability. The note with it: data not shown. Type of data set: cell-based, human.
For data set [6], the target named is T1, CDK2/cyclin A (Homo sapiens, UniProt P24941). Briefly: Millipore KinaseProfilerXL kinase activity, dose titration. The format is biochemical. The note with it: 5-log dose titration 0.001-10μM.
The subject of another data set is HS-5 BMSCs. Briefly: MTT viability of non-malignant stromal cells. Type of data set: cell-based, human. The note with it: read-out: calculated EC50 (viability); non-malignant HS-5 BMSCs.
Data set [7] concerns the target T1, CDK2/cyclin A. Briefly: Invitrogen Z'-LYTE in vitro kinase activity assay. Type of data set: biochemical. The note with it: 500 nM LCQ195, 100 μM ATP, 1% DMSO.
Another data set deals with XG-1 MM cell line. Briefly: MTT colorimetric survival assay. Type of data set: cell-based, human. The following applies: read-out: EC50 (viability), XG-1, 0-4 μM, 48 hrs.
The next data set addresses CLK3 (Homo sapiens, UniProt P49761). Briefly: Invitrogen Z'-LYTE in vitro kinase activity assay. Type of data set: biochemical. The following applies: 500 nM LCQ195, 100 μM ATP, 1% DMSO.
Another data set concerns PBMCs. Briefly: MTT viability of PBMCs from healthy donors. Type of data set: cell-based, human. The following applies: LCQ195 up to 8 μM for 48 hrs.
Data set [8] relates to MM.1S cells. Briefly: Flow cytometric cell cycle analysis. The format is cell-based, human. The note with it: 2 μM for up to 48 hours.
In another data set the target is CDK5/p25 (Homo sapiens, UniProt Q00535). Briefly: Invitrogen Z'-LYTE in vitro kinase activity assay. Type of data set: biochemical. The note with it: 500 nM LCQ195, 100 μM ATP, 1% DMSO.
Sequence of CDK5/p25 (Q00535 whole entry): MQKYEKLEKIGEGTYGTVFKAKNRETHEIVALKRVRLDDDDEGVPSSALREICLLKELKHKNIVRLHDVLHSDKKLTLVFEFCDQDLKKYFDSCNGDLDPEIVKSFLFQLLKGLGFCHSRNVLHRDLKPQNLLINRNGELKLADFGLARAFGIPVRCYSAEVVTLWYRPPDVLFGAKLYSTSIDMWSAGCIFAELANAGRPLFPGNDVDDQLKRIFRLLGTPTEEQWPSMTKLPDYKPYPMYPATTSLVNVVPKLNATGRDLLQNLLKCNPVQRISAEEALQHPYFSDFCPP
The next data set has as its system KMS-12-BM MM cell line. Briefly: MTT colorimetric survival assay. The format is cell-based, human. The note with it: read-out: EC50 (viability), 0-4 μM, 48 hrs.
Another data set has as its target CDK2/cyclin E (Homo sapiens, UniProt P24941). Briefly: Millipore KinaseProfilerXL kinase activity, dose titration. The note with it: 5-log dose titration 0.001-10μM. Type of data set: biochemical.
Another data set addresses CHEK2 (CHK2) (Homo sapiens, UniProt O96017). Briefly: Invitrogen Z'-LYTE in vitro kinase activity assay. The format is biochemical. The following applies: 500 nM LCQ195, 100 μM ATP, 1% DMSO.
A further data set concerns Delta 47 MM cell line. Briefly: MTT colorimetric survival assay. The following applies: read-out: EC50 (viability), Delta 47, 0-4 μM, 48 hrs. The format is cell-based, human.
For data set [9], the system named is MM.1S cells. Briefly: Annexin V / PI flow cytometric analysis of apoptosis. The format is cell-based, human. The note with it: 2 μM, 4-48 hrs.
Another data set has as its system U266 MM cell line. Briefly: MTT colorimetric survival assay. The following applies: read-out: EC50 (viability), U266, 0-4 μM, 48 hrs. The format is cell-based, human.
In another data set the target is CDK5/p35 (Homo sapiens, UniProt Q00535). Briefly: Invitrogen Z'-LYTE in vitro kinase activity assay. The format is biochemical. The following applies: 500 nM LCQ195, 100 μM ATP, 1% DMSO.
Sequence of CDK5/p35 (Q00535 whole entry): as above
For data set [10], the system named is CD138+ selected primary MM cells. Briefly: CellTiterGlo viability of purified primary tumor cells from MM patients. Type of data set: cell-based, human. The note with it: increasing doses, 48 hrs.
The next data set has as its system Dox40 MM cell line. Briefly: MTT colorimetric survival assay. The format is cell-based, human. The following applies: read-out: EC50 (viability), Dox40, 0-4 μM, 48 hrs.
Data set [11] concerns MM.1S cells. Briefly: Immunoblotting analysis of LCQ195-treated cells. The format is cell-based, human. The note with it: 2 μM.
Data set [12] relates to immortalized hepatocyte cell line THLE-3. Briefly: MTT viability of immortalized hepatocytes. The format is cell-based. The note with it: read-out: calculated EC50 (viability); immortalized hepatocytes THLE-3.

Sequence of CHEK2 (CHK2) (O96017 whole entry): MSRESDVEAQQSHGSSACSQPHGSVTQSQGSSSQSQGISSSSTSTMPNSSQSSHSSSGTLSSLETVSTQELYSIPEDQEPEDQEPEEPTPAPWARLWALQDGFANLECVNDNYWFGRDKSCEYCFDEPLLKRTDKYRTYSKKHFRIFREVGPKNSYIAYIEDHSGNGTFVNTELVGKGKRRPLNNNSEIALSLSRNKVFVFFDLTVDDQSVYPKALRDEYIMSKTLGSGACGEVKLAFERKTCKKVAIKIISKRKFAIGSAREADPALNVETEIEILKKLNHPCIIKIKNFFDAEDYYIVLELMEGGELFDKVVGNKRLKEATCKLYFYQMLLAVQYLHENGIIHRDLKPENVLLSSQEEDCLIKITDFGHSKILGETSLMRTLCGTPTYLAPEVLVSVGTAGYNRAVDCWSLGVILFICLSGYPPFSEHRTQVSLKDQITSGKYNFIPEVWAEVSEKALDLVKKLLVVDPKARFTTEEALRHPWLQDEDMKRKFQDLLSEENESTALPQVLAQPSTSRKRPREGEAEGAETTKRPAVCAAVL
Sequence of CLK3 (P49761 whole entry): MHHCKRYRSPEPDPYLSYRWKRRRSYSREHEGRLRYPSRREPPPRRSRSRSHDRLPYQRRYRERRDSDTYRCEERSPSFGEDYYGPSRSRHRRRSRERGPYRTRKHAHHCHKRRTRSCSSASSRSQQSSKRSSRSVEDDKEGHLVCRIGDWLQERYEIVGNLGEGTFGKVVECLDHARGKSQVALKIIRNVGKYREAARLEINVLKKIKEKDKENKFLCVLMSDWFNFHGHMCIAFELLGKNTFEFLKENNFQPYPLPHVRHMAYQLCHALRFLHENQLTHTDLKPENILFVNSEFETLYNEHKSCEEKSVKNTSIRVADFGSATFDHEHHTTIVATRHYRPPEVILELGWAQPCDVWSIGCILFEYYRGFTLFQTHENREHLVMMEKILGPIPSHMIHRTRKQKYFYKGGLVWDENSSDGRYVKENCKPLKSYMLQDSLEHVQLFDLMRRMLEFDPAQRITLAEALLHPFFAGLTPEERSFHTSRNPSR
Sequence of CDK1/cyclin B (P06493 whole entry): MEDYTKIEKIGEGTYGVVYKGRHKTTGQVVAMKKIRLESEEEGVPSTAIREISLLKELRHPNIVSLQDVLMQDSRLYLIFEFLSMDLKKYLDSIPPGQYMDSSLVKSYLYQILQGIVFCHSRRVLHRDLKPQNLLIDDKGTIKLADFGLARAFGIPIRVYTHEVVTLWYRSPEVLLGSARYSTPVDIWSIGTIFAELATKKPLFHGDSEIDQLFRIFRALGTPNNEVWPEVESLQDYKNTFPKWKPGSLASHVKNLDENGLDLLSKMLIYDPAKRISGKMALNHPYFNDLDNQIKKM

Regarding `CN1CC[C@H](c2c(O)cc(O)c3c(=O)cc(-c4ccccc4Cl)oc23)[C@H](O)C1` [flavopiridol, reference compound], the “p107 levels (immunoblotting)” value in the data set with MM.1S cells [1] is “stable”.
Take `CC(C)C[C@H](NC(=O)[C@H](Cc1ccccc1)NC(=O)c1cnccn1)B(O)O` [PS-341, reference compound]: the cytochrome c release result in the data set on MM.1S cells [2] (positive control, 50 nM for 12 hrs) was “significant release of cytochrome C”.
Regarding `CS(=O)(=O)N1CCC(NC(=O)c2[nH]ncc2NC(=O)c2c(Cl)cccc2Cl)CC1` [LCQ195], the EC50 is ~1 µM and ≤ 1 µM in the data set on panel of MM cell lines; greater than 4 µM with NOP2 MM cell line; less than 1 µM in the data set with S6B45 MM cell line; less than 1 µM in the data set with OPM2 MM cell line; greater than 4 µM in the data set with HS-5 BMSCs; greater than 4 µM in the data set with XG-1 MM cell line. Moreover, the EC50 in the data set with KMS-12-BM MM cell line was less than 1 µM; with Delta 47 MM cell line, less than 1 µM; in the data set with U266 MM cell line, less than 1 µM; in the data set with Dox40 MM cell line, greater than 4 µM; in [12], greater than 4 µM. Besides, the “expression of transcription factors myc, IRF4 and XBP-1 (transcripts)” value in the data set on MM.1S cells [3] is recorded as “suppressed”. The “inhibition of kinase activity” value is listed as “potent inhibition” on CDK1/cyclin B; “potent inhibition” at CDK2/cyclin A [7]; “partial inhibition” against CLK3; “potent inhibition” at CDK5/p25; “partial inhibition” against CHEK2 (CHK2); “potent inhibition” on CDK5/p35. Also, the “effect of bcl-2 overexpression on cell survival after treatment” value in data set [4] is reported as “minimal effect on cell survival”. Further, the combination with bortezomib result with MM.1S cells [5] is recorded as “no synergy”. Besides, the combination with doxorubicin entry in the data set on MM.1S cells [5] is recorded as “no synergy”. The “in vitro kinase activity in dose titration” value on CDK2/cyclin A [6] and at CDK2/cyclin E was “active at sub-μM concentrations” in each case. Besides, the “percentage of viable PBMCs” value in the data set on PBMCs was no less than 50%. Also, the cell cycle profile entry in the data set on MM.1S cells [8] was “increased the percentage of cells in S and G2/M phases early, followed by an increase in sub-G1 population”. For the same molecule, in the data set on MM.1S cells [1], the “p107 levels (immunoblotting)” value is “decreased”. Besides, the “apoptosis (Annexin V / PI staining)” value with MM.1S cells [9] was “induces apoptosis”. The cytochrome c release result in the data set with MM.1S cells [2] (2 μM LCQ195 for 4-24hrs) is “no changes”. In [10], the “response of purified primary tumor cells (viability)” value is on record as “responded”. The “caspase 8, caspase 3 and PARP cleavage (immunoblotting)” value in the data set with MM.1S cells [11] (0-24 hrs) is listed as “cleavage as early as 16 hrs”. The “caspase 9 cleavage (immunoblotting)” value in the data set on MM.1S cells [11] (0-24 hrs) is recorded as “no cleavage of caspase 9”. Besides, the “Rb phosphorylation (immunoblotting)” value in the data set on MM.1S cells [11] (as early as 2 hours) is given as “pronounced decrease”.
